Test results taken from US20060257322A1, “Pharmaceutical agents that contain fluoroalkyl-containing metal complexes and epothilones” (priority 2005, published 2006).
Values joined by “and” are separate entries in the source; they are usually repeats but may differ in a detail not shown here. Equal values may be shown once. Read-outs that look alike come from different tables or passages of the source.

Assays:
[1] = format: in vivo, hairless mice; conditions: for Relative animal weights: day 0 (about 30-35 g) normalized to 1
Procedure: (§1) A549 lung tumors were induced in hairless mice (4×10^6 cells/30 μl of full medium). Animal weights and tumor surface areas/volumes were determined, and in this case, the tumor surface area or the tumor volume (based on an ellipsoid of revolution) was calculated. Length and width of the tumor were measured with vernier calipers. After reaching the size of a pea, the treatment was begun.
(§2) • (a) 20 mmol of Gd/l of the Gd complex compound as mentioned in Example 1 or 3 (as a comparison solution=Blank reading) • (b) 1.5 mmol/l of the epothilone as mentioned in Example 1 or 3, in aqueous hydroxypropyl-β-cyclodextrin solution (prior art) (For the production of formulations in the prior art, see WO 99/07692 and WO 00/4902 1) • (c) Formulation of Example 1 or 3 (formulation according to the invention) Dosages: • (a) 100 μmol of Gd/kg of body weight • (b) 11 μmol/kg or 18 μmol/kg of body weight • (c) 100 μmol of Gd/kg+11 (or 18) μmol of epothilone/kg of body weight (corresponds to the ratio in the formulation of Example 1 or 3).
(§3) The animal weights and tumor sizes were measured over a period of 20 days after intravenous administration.

A549 lung tumors = format: in vivo, hairless mice; conditions: day 0 normalized to 1
Procedure: as §1, §2, §3

[2] = Day 5, 11 μmol of epothilone/kg of body weight i.v. (formulations: plus 100 μmol of Gd/kg)
[3] = Day 5, 18 μmol of epothilone/kg of body weight i.v. (formulations: plus 100 μmol of Gd/kg)
[4] = Day 11, 11 μmol of epothilone/kg of body weight i.v. (formulations: plus 100 μmol of Gd/kg)
[5] = Day 11, 18 μmol of epothilone/kg of body weight i.v. (formulations: plus 100 μmol of Gd/kg)
[6] = Day 15, 11 μmol of epothilone/kg of body weight i.v. (formulations: plus 100 μmol of Gd/kg)
[7] = Day 15, 18 μmol of epothilone/kg of body weight i.v. (formulations: plus 100 μmol of Gd/kg)
[8] = Day 20, 11 μmol of epothilone/kg of body weight i.v. (formulations: plus 100 μmol of Gd/kg)
[9] = Day 20, 18 μmol of epothilone/kg of body weight i.v. (formulations: plus 100 μmol of Gd/kg)
[10] = first days after substance administration, 11 μmol of epothilone/kg of body weight i.v.
[11] = first days after substance administration, 18 μmol of epothilone/kg of body weight i.v.

Row | SMILES | Relative animal weights (in words) ([1]; mouse, in vivo, iv) | Relative tumor surface area (A549 lung tumors; [2]) | Relative tumor surface area (A549 lung tumors; [3]) | Relative tumor surface area (A549 lung tumors; [4]) | Relative tumor surface area (A549 lung tumors; [5]) | Relative tumor surface area (A549 lung tumors; [6]) | Relative tumor surface area (A549 lung tumors; [7]) | Relative tumor surface area (A549 lung tumors; [8]) | Relative tumor surface area (A549 lung tumors; [9]) | Relative animal weights [1, 2] | Relative animal weights [1, 3] | Relative animal weights [1, 4] | Relative animal weights [1, 5] | Relative animal weights [1, 6] | Relative animal weights [1, 7] | Relative animal weights [1, 8] | Relative animal weights [1, 9] | Relative animal weights (in words) [1, 10] | Relative animal weights (in words) [1, 11]
1 | Cc1nc(/C=C(\Cl)[C@@H]2C[C@@H]3O[C@]3(C)CCC[C@H](C)[C@H](O)[C@@H](C)C(=O)C(C)(C)[C@@H](O)CC(=O)O2)cs1 [Epothilone C, (1S,3S(Z),7S,10R,11S,12S,16R)-7,11-Dihydroxy-3-(1-chloro-2-(2-methyl-4-thiazolyl)ethenyl)-8,8,10,12,16-pentamethyl-4,17-dioxabicyclo[14.1.0]heptadecane-5,9-dione] | small weight loss | 1.1 ± 0.1 | 1.1 ± 0.1 | 1.4 ± 0.3 | 1.3 ± 0.3 | 1.5 ± 0.3 | 1.6 ± 0.3 | 1.5 ± 0.2 | 1.5 ± 0.2 | – | – | – | – | – | – | – | – | – | –
2 | C=CC[C@H]1C(=O)C(C)(C)[C@@H](O)CC(=O)O[C@H](c2ccc3sc(C)nc3c2)C[C@@H]2O[C@]2(C)CCC[C@H](C)[C@@H]1O [Epothilone F, (1S,3S,7S,10R,11S,12S,16R)-7,11-Dihydroxy-3-(2-methylbenzothiazol-5-yl)-10-(prop-2-en-1-yl)-8,8,12,16-tetramethyl-4,17-dioxabicyclo[14.1.0]heptadecane-5,9-dione] | – | 1.1 ± 0.1 | 1.1 ± 0.1 | 1.3 ± 0.2 | 1.2 ± 0.2 | 1.5 ± 0.3 | 1.4 ± 0.1 | 1.5 ± 0.4 | 1.5 ± 0.2 | 0.94 | 0.92 | 0.97 | 0.93 | 0.97 | 0.97 | 0.96 | 0.99 | small weight loss | small weight loss
3 | CC[C@H]1C(=O)C(C)(C)[C@@H](O)CC(=O)O[C@H](/C(F)=C/c2ccccn2)C/C=C(/C)CCC[C@H](C)[C@@H]1O [Epothilone G, 4S,7R,8S,9S,13(Z),16S(Z)-4,8-Dihydroxy-16-(1-fluoro-2-(2-pyridyl)ethenyl)-7-ethyl-1-oxa-5,5,9,13-tetramethyl-cyclohexadec-13-ene-2,6-dione] | – | 1.1 ± 0.1 | 1.1 ± 0.1 | 1.3 ± 0.1 | 1.3 ± 0.4 | 1.5 ± 0.3 | 1.5 ± 0.3 | 1.6 ± 0.2 | 1.6 ± 0.2 | 0.94 | 0.945 | 0.97 | 0.97 | 0.95 | 0.97 | 0.96 | 0.98 | small weight loss | small weight loss
4 | C#CCC[C@H]1C(=O)C(C)(C)[C@@H](O)CC(=O)O[C@H](/C(C)=C/c2ccccn2)C/C=C(/C)CCC[C@H](C)[C@@H]1O [Epothilone I, (4S,7R,8S,9S,13(Z),16S(E))-4,8-Dihydroxy-16-(1-methyl-2-(2-pyridyl)ethenyl)-1-oxa-5,5,9,13-tetramethyl-7-(but-3-in-1-yl)-cyclohexadec-13-ene-2,6-dione] | – | 1.2 ± 0.1 | – | 1.3 ± 0.3 | – | 1.4 ± 0.3 | – | 1.5 ± 0.1 | – | 0.93 | – | 0.97 | – | 0.97 | – | 0.98 | – | small weight loss | –
5 | C=CC[C@H]1C(=O)C(C)(C)[C@@H](O)CC(=O)O[C@H](/C(C)=C/c2csc(C)n2)C/C=C(/C)CCC[C@H](C)[C@@H]1O [Epothilone K, (4S,7R,8S,9S,13(Z),16S(E))-4,8-Dihydroxy-16-(1-methyl-2-(2-methylthiazol-4-yl)ethenyl)-1-oxa-5,5,9,13-tetramethyl-7-(prop-2-en-1-yl)-cyclohexadec-13-ene-2,6-dione] | small weight loss | – | 1.1 ± 0.1 | – | 1.3 ± 0.3 and 1.3 ± 0.1 | – | 1.5 ± 0.2 | – | 1.6 ± 0.1 and 1.5 ± 0.2 | – | – | – | – | – | – | – | – | – | –
6 | C#CC[C@H]1C(=O)C(C)(C)[C@@H](O)CC(=O)O[C@H](/C(F)=C/c2csc(C)n2)C/C=C(/C)CCC[C@H](C)[C@@H]1O [Epothilone L, (4S,7R,8S,9S,13(Z),16S(Z))-4,8-Dihydroxy-16-(1-fluoro-2-(2-methylthiazol-4-yl)ethenyl)-7-(prop-2-in-1-yl)-1-oxa-5,5,9,13-tetramethyl-cyclohexadec-13-ene-2,6-dione] | – | 1.1 ± 0.1 | 1.1 ± 0.1 | 1.3 ± 0.1 | 1.3 ± 0.2 | 1.5 ± 0.2 | 1.5 ± 0.2 | 1.5 ± 0.2 | 1.5 ± 0.1 | 0.93 | 0.94 | 0.96 | 0.95 | 0.97 | 0.97 | 0.98 | 0.96 | small weight loss | small weight loss
7 | C#CC[C@H]1C(=O)C(C)(C)[C@@H](O)CC(=O)O[C@H](/C(F)=C/c2coc(C)n2)C/C=C(/C)CCC[C@H](C)[C@@H]1O [Epothilone N, (4S,7R,8S,9S,13(Z),16S(Z))-4,8-Dihydroxy-16-(1-fluoro-2-(2-methyloxazol-4-yl)ethenyl)-7-(prop-2-in-1-yl)-1-oxa-5,5,9,13-tetramethyl-cyclohexadec-13-ene-2,6-dione] | – | 1.1 ± 0.1 | – | 1.2 ± 0.2 | – | 1.5 ± 0.3 | – | 1.6 ± 0.4 | – | 0.94 | – | 0.97 | – | 0.98 | – | 0.96 | – | small weight loss | –
